The subject of experiment [1] is ovariectomized (OVX) Wistar rats. Kind of experiment: APO-induced responses in ovariectomized (OVX) rats. The experiment is classed as in vivo, rat. How it is done:
A modification of a previous protocol using APO (80 ug/kg in 100 ug/ml ascorbic acid in water, s.c.) was used^(17). […] Rats were placed in hanging cages with bottoms constructed of Plexiglas®, in a dark, quiet room where they were allowed to acclimate for 10 minutes before the testing period. Following APO administration, the number of genital responses and associated yawning responses were recorded for a 30 minute period via a video monitoring system in an adjacent room.
APO-induced responses were determined in ovariectomized (OVX)^(22) rats to determine the effect of reduced levels of endogenous hormones. In brief, animals were anaesthetized with isoflurane gas delivered via a Bain rebreathing system. A small midline dorsal skin incision was made approximately half-way between the middle of the back and the base of the tail. Both ovaries were removed by ligating and severing the junction between the fallopian tube and uterine hom. Post-operative analgesia (buprenorphine, Buprenex™, 0.05 mg/kg) and antibiotics (0.1 ml/100 g body wt., Tribrissen™ 24%, Schering Canada Inc.) were administered daily for 5 days. Animals were given at least one week to recover before the onset of experimentation.

Experiment [2] has as its system aged (18 months) female Wistar rats. Kind of experiment: Recovery of APO-induced GVA response in aged female rats with short-term anti-hypertensive treatment. The format is in vivo, rat. How it is done: Aged (18 months) and control (3-4 months) female Wistar rats were assessed for APO-induced GVA response as described above (Example 1). Aged females were then treated with enalapril (30 mg kg^−1day^−1, orally)+low salt diet for 2 weeks. Prior to, during, and after treatment, apomorphine (80 ug kg^−1, s.c.) was used to elicit GVA responses. The frequency of GVA responses per rat for a 30-minute period was determined as described above (Example 1).

The test system of experiment [3] is male spontaneously hypertensive rats (SHR). Description: APO-induced penile erectile response in aging SHR with anti-hypertensive and testosterone treatments. The settings on record: for number of erections relative to pre-treatment: summary of Example 3; for increase in number of erections two weeks off treatment: third treatment at 68 weeks, previously untreated rats, low salt diet, 30 mg/kg per day. The experiment is classed as in vivo, rat. On the procedure: Animals: 30-week-old male spontaneously hypertensive rats (Charles River Laboratories, Montreal, Quebec, Canada) were housed individually at a temperature of 22-24° C. with a 12-hour light/dark cycle. They were provided with free access to regular rodent chow (0.4% Na^+) and tap water. All procedures were performed in accordance with the guidelines of the Canadian Council on Animal Care.
Anti-hypertensive Treatments. Rats were randomly divided into three groups. The control animals received only tap water. One treatment group received the ACE inhibitor enalapril maleate (30 mg/kg per day), and the other received the vasodilator hydralazine (45 mg/kg per day) (enalapril and hydralazine supplied by Sigma Chemical Co., St. Louis, Mo.) administered orally through their drinking water for 2 weeks. Aspartame (100 mg/1) was added to the hydralazine solution to improve the taste. Drug concentrations were calculated based on previously established drinking patterns^(24). Several times throughout the 2-week treatment period, the drug concentrations in the drinking water were adjusted to account for fluctuations in animal weight or fluid intake. Erectile response was measured in all groups with the administration of apomorphine (APO). APO-testing was performed three times before treatment and twice between days 7-14 of treatment.
A second two-week anti-hypertensive treatment was performed at 49 weeks of age. Rather than trying to prevent erectile dysfunction, this treatment attempted to restore erectile function. The same drugs and procedures were used as outlined above. APO-testing was performed twice between days 7-14 of treatment and twice off treatment.
Rats were randomized into four new treatment groups. The previously untreated rats received enalapril (30 mg/kg per day) or losartan (30 mg/kg per day) in their drinking water and were fed a low sodium diet (0.04% Na^+). After 6 days of treatment, a daily 4-hour access to salt containing regular chow (0.4% Na^+) was permitted to allow for a depressor response of 50% of the pre-treatment levels^(25). The treated rats received enalapril (30 mg/kg per day) in their drinking water and a low sodium diet (0.04% Na^+) or a triple therapy treatment^(24) combining hydralazine (45 mg/kg per day), a calcium channel blocker, nifedipine (200 mg per day) and a diuretic, hydrochlorothiazide (100 mg/l) (all drugs supplied by Sigma Chemical Co., St. Louis, Mo.). Hydralazine and hydrochlorothiazide were administered in the drinking water and nifedipine was mixed into ground regular rodent chow during the 12 h dark cycle. Aspartame (100 mg/l) was added to the hydralazine solution to improve the taste. APO-testing was performed twice between days 7-14 of treatment and twice off treatment.
Testosterone was prepared from a stock solution of testosterone propionate (Taro Pharmaceuticals, Bramalea, Ontario) diluted in peanut oil. Each rat received a single dose of testosterone (480 μg/kg) administered via subcutaneous injection in the neck. Testosterone was administered 36 hours prior to APO-testing.
Assessment of Erectile Response. Erectile response was assessed using the well-established bio-assay rat model developed by Heaton et al.^(17). The rats were placed in separate, wire hanging-wall cages with clear Plexiglas bottoms in a dark, quiet room and allowed to acclimate for 20 minutes. Each rat received apomorphine (80 μg/kg) in saline ([…] apomorphine plus 100 μg/ml ascorbic acid) via subcutaneous injection (1 ml/kg) in the loose skin of the neck or back. Erections and yawns were counted at 5-minute intervals over a 30-minute period via videomonitoring in an adjacent room.

The subject of another experiment is female Wistar rats. Kind of experiment: APO-induced genital vasocongestive arousal (GVA) response bio-assay, intact rats. The settings on record: for average number of GVA responses: APO 80 ug/kg s.c.; for average number of GVA responses / yawning responses: 30 minutes; for yawning responses: intact animals.
[4] abbreviates: distribution over the 30-minute period.

Turning to `CN1CCc2cccc3c2[C@H]1Cc1ccc(O)c(O)c1-3` [APO, apomorphine], the “reduction of GVA responses in OVX rats relative to intact animals” value in experiment [1] (8 OVX Wistar rats, 30 minute period) is “about 80%”. In experiment [1] (APO administration), the “non-GVA responses, OVX vs intact animals” value was “no significant difference”. For the same molecule, in experiment [2] (APO 80 ug/kg s.c., 30 minute period), the “average GVA responses in control (3-4 months) female rats” value was “about 2”. Moreover, in experiment [2] (pre-treatment), the “APO-induced GVA response rate in aged females” value came out at 40%. In addition, the “GVA responses in aged female rats relative to controls” value in experiment [2] (prior to anti-hypertensive treatment, APO 80 ug/kg s.c.) was “significantly fewer”. Besides, in experiment [3] (SHR 30-68 weeks, APO 80 μg/kg s.c.), the “APO-induced erectile responses with age” value was “progressive loss of response”. Besides, in the experiment on female Wistar rats (30-minute period), the “share of total GVA responses occurring within the first 20 minutes” value was determined as 80%. Further, the “genital grooming responses, dose-response assessment” value in the experiment on female Wistar rats (APO 40, 80 & 120 ug/kg, result for 80 ug/kg, preliminary studies) is “greatest number of genital grooming responses”. The “non-GVA responses, APO vs control tested animals” value in the experiment on female Wistar rats (any stage of the estrous cycle) is on record as “no significant difference”. The “average number of GVA responses” value is given as 1.13±1.36 in the experiment with female Wistar rats (diestrus 1); 0.88±0.85 in the experiment with female Wistar rats (diestrus II); 1.75±1.67 in the experiment on female Wistar rats (estrus); 1.5±1.20 with female Wistar rats (metestrus); 1.5±1.06 in the experiment on female Wistar rats (proestrus, 8 rats). In addition, the yawning responses with female Wistar rats (diestrus 1) was determined as 2±2.50; in the experiment with female Wistar rats (metestrus), 3.63±3.96. Also, in the experiment with female Wistar rats (setting [4]), the “time of peak of APO-induced GVA responses” value is 5 to 10 min. In addition, the “time of peak of APO-induced yawning responses” value in the experiment on female Wistar rats (setting [4]) lay within 15 to 20 min.

For `CCCCc1nc(Cl)c(CO)n1Cc1ccc(-c2ccccc2-c2nn[nH]n2)cc1` [losartan], in experiment [3], the “number of erections relative to pre-treatment” value is on record as “significant increases” and the “increase in number of erections two weeks off treatment” value was determined as 2 fold.

Turning to `CCOC(=O)[C@H](CCc1ccccc1)N[C@@H](C)C(=O)N1CCC[C@H]1C(=O)O` [enalapril], the “frequency of APO-induced GVA responses off treatment relative to the treatment period” value in experiment [2] (1 & 3 week off-treatment, p<0.05) is “persistent and significant increase”. Further, the “persistence of increased sexual responsiveness to APO after cessation of treatment” value in experiment [2] (compared to pre-treatment levels) is listed as “persisted for at least ten weeks”. For the same molecule, the “overall APO-induced GVA response rate in aged females” value came out at 56% in experiment [2] (during anti-hypertensive treatment) and 93% in experiment [2] (off-treatment). For the same molecule, the “APO-induced GVA responses during anti-hypertensive treatment” value in experiment [2] (enalapril 30 mg/kg/day orally + low salt diet, 2 weeks, p=0.065) is given as “trend of increasing”. The partial behavioural responses result in experiment [2] (persisted after cessation of the treatment, FIG. 2) is listed as “increase in the number of partial behavioural responses”. Further, the “APO-induced GVA response of aged rats after two weeks of daily treatment” value in experiment [2] (summary of pilot study) was “increased to levels of young rats”. In experiment [3] (second treatment at 49 weeks), the “average number of erections two weeks after treatment was withdrawn” value was “significantly higher level than the pre treatment values”. Also, in experiment [3] (second treatment at 49 weeks, not significant), the “increase in average number of erections on treatment vs pre treatment” value was more than 2 fold. For the same molecule, in experiment [3], the “number of erections relative to pre-treatment” value is “significant increases”. Further, the “increase in number of erections two weeks off treatment” value in experiment [3] came to 2 fold.

For `CCC(=O)O[C@H]1CC[C@H]2[C@@H]3CCC4=CC(=O)CC[C@]4(C)[C@H]3CC[C@]12C` [Testosterone, testosterone propionate], in experiment [3] (66 weeks of age), the “effect of testosterone on erectile response” value was “did not increase erectile response” and the “effect of testosterone on number of yawns” value is given as “significantly increase”. Moreover, the “effect of testosterone supplementation on number of erections” value in experiment [3] (control rats and rats treated with hydralazine, 47 and 66 weeks of age, 480 μg/kg s.c.) is listed as “did not significantly affect”. Further, the “increase in number of erections with testosterone” value in experiment [3] (enalapril treated rats, after the first testosterone treatment) worked out at 2.5 fold.

These data come from US20040138291A1, “Treatment of sexual dysfunction” (priority 2002, published 2004).
